# Data as given in patent US20250179052A1, “PYRIMIDINYL-OXY-QUINOLINE BASED HERBICIDAL COMPOUNDS” (SYNGENTA CROP PROTECTION AG, priority 2022, published 2025).
# How the values were obtained:
# Settings in all cases: 250 g/ha, evaluated after 13 days, five-point scale
# [1] = test system: Amaranthus retoflexus (AMARE); experiment: Post-emergence herbicidal glasshouse test; format: in vivo
# [2] = test system: AMAPA; experiment: Post-emergence herbicidal glasshouse test; format: in vivo, Amaranthus tuberculatus
# [3] = test system: Echinochloa crus-galli (ECHCG); experiment: Post-emergence herbicidal glasshouse test; format: in vivo
# [4] = test system: Ipomoea hederacea (IPOHE); experiment: Post-emergence herbicidal glasshouse test; format: in vivo
# [5] = test system: Amaranthus retoflexus (AMARE); experiment: Pre-emergence herbicidal glasshouse test; format: in vivo
# [6] = test system: AMAPA; experiment: Pre-emergence herbicidal glasshouse test; format: in vivo, Amaranthus tuberculatus
# [7] = test system: Echinochloa crus-galli (ECHCG); experiment: Pre-emergence herbicidal glasshouse test; format: in vivo
# [8] = test system: Ipomoea hederacea (IPOHE); experiment: Pre-emergence herbicidal glasshouse test; format: in vivo
SMILES,"percentage damage caused to the plant, AMARE [1]","percentage damage caused to the plant, AMAPA [2]","percentage damage caused to the plant, ECHCG [3]","percentage damage caused to the plant, IPOHE [4]","percentage damage caused to the plant, AMARE [5]","percentage damage caused to the plant, AMAPA [6]","percentage damage caused to the plant, ECHCG [7]","percentage damage caused to the plant, IPOHE [8]"
Fc1cnc(Oc2cccc3nc(C(F)(F)F)ccc23)nc1 [Compound 1.042],5 (5=81-100%),5 (5=81-100%),4 (4=61-80%),4 (4=61-80%),5 (5=81-100%),5 (5=81-100%),5 (5=81-100%),5 (5=81-100%)
Fc1cnc(Oc2ccc(Cl)c3nc(C(F)(F)Cl)ncc23)nc1 [Compound 1.043],3 (3=41-60%),3 (3=41-60%),1 (1=0-20%),2 (2=21-40%),4 (4=61-80%),4 (4=61-80%),1 (1=0-20%),1 (1=0-20%)
Fc1cnc(Oc2ccc(Cl)c3nc(C(F)F)ncc23)nc1 [Compound 1.046],2 (2=21-40%),1 (1=0-20%),1 (1=0-20%),2 (2=21-40%),5 (5=81-100%),4 (4=61-80%),1 (1=0-20%),1 (1=0-20%)
Cc1ccc(Oc2ncc(F)cn2)c2cnc(C(F)(F)Cl)nc12 [Compound 1.049],2 (2=21-40%),3 (3=41-60%),1 (1=0-20%),2 (2=21-40%),1 (1=0-20%),1 (1=0-20%),1 (1=0-20%),1 (1=0-20%)
Cc1nc(C(F)F)nc2cccc(Oc3ncc(Br)cn3)c12 [Compound 1.051],1 (1=0-20%),1 (1=0-20%),1 (1=0-20%),1 (1=0-20%),1 (1=0-20%),1 (1=0-20%),1 (1=0-20%),1 (1=0-20%)
Cc1nc(C(F)F)nc2cccc(Oc3ncc(F)cn3)c12 [Compound 1.052],1 (1=0-20%),1 (1=0-20%),1 (1=0-20%),2 (2=21-40%),2 (2=21-40%),1 (1=0-20%),2 (2=21-40%),1 (1=0-20%)
FC(F)c1ncc2c(Oc3ncc(Cl)cn3)ccc(Cl)c2n1 [Compound 1.054],2 (2=21-40%),2 (2=21-40%),1 (1=0-20%),1 (1=0-20%),5 (5=81-100%),5 (5=81-100%),2 (2=21-40%),1 (1=0-20%)
"FC(F)(Cl)c1ncc2c(Oc3ncc(Br)cn3)cccc2n1 [Compound 1.055, 5-(5-bromopyrimidin-2-yl)oxy-2-[chloro(difluoro)methyl]quinazoline]",2 (2=21-40%),3 (3=41-60%),2 (2=21-40%),2 (2=21-40%),5 (5=81-100%),5 (5=81-100%),4 (4=61-80%),2 (2=21-40%)
"Cc1cnc(Oc2cccc3nc(C(F)(F)Cl)ncc23)nc1 [Compound 1.056, 2-[chloro(difluoro)methyl]-5-(5-methylpyrimidin-2-yl)oxy-quinazoline]",2 (2=21-40%),4 (4=61-80%),3 (3=41-60%),4 (4=61-80%),5 (5=81-100%),5 (5=81-100%),5 (5=81-100%),5 (5=81-100%)
FC(F)(Cl)c1ncc2c(Oc3ncc(Cl)cn3)cccc2n1 [Compound 1.057],4 (4=61-80%),4 (4=61-80%),4 (4=61-80%),4 (4=61-80%),5 (5=81-100%),5 (5=81-100%),5 (5=81-100%),5 (5=81-100%)
Fc1cnc(Oc2cccc3nc(C(F)F)ncc23)nc1 [Compound 1.058],2 (2=21-40%),2 (2=21-40%),1 (1=0-20%),4 (4=61-80%),5 (5=81-100%),5 (5=81-100%),1 (1=0-20%),3 (3=41-60%)
"Fc1cnc(Oc2cccc3nc(C(F)(F)Cl)ncc23)nc1 [Compound 1.061, 2-[chloro(difluoro)methyl]-5-(5-fluoropyrimidin-2-yl)oxy-quinazoline]",4 (4=61-80%),4 (4=61-80%),4 (4=61-80%),4 (4=61-80%),5 (5=81-100%),5 (5=81-100%),5 (5=81-100%),5 (5=81-100%)
N#Cc1ccc(Oc2ncc(Cl)cn2)c2cnc(C(F)(F)F)nc12 [Compound 1.065],1 (1=0-20%),1 (1=0-20%),1 (1=0-20%),2 (2=21-40%),1 (1=0-20%),1 (1=0-20%),1 (1=0-20%),1 (1=0-20%)
Cc1cc(C(F)(F)F)nc2cccc(Oc3ncc(Cl)cc3F)c12 [Compound 1.066],1 (1=0-20%),1 (1=0-20%),1 (1=0-20%),1 (1=0-20%),1 (1=0-20%),1 (1=0-20%),1 (1=0-20%),1 (1=0-20%)
